In paper PMC9101764, “Synthesis and In Vitro Characterization of Selective Cannabinoid CB2 Receptor Agonists: Biological Evaluation against Neuroblastoma Cancer Cells” (Molecules, 2022):

Assays:
[1] = molecular target: T1, hCB2R (Homo sapiens, UniProt P34972); assay: [3H]CP55,940 radioligand displacement assay, CHO cell membranes; type: binding
T1 construct: host or cells: HitHunter CHO-K1 cells
Experimental: (§1) CHO cells stably expressing hCB1R or hCB2R were maintained at 37 °C and 5% CO2 in Gibco Ham’s F-12 nutrient mix (Fisher Scientific, Loughborough, UK ) supplemented with 2 mM L-glutamine, 10% fetal bovine serum (FBS), 0.6% penicillin−streptomycin (Fisher Scientific, Loughborough UK), and the disulfate salt of geneticin (G418) as previously described (Sigma-Aldrich, Poole, UK). For subsequent radioligand displacement assays, membranes were prepared by scraping cells from flasks, centrifuging the cells, and storing the cell pellet at −20 °C. When required for us, cell pellets were defrosted and diluted in tris buffer (50 mM Tris-HCl and 50 mM Tris-base). As we have described in previous studies, HitHunter (cAMP) and PathHunter (βarrestin2) CHO-K1 cells stably expressing hCB1R or hCB2R from DiscoveRx® (Eurofins, Fremont, CA, USA) were maintained at 37 °C, 5% CO2 in F-12 DMEM containing 10% FBS and 1% Pen/Strep with 800 µg/mL geneticin (HitHunter) or 800 µg/mL G418 and 300 µg/mL hygromycin B (PathHunter).
We have previously described radioligand displacement assays in detail. […] Binding reactions were terminated by ice-cold tris binding buffer and subsequent vacuum filtration (24-well sampling manifold (Brandel cell harvester; Brandel Inc., Gaithersburg, MD, USA)) using Brandel GF/B filters soaked in wash buffer at 4 °C for at least 24 h. Filters were washed with 1.2 mL of tris-binding buffer six times, then oven-dried for 60 min before being incubated in 3 mL of scintillation fluid (Ultima Gold XR, PerkinElmer, Seer Green, Buckinghamshire, UK). Radioactivity was quantified by liquid scintillation spectrometry. All compounds were first prepared at 10 mM solutions in DMSO. The final vehicle concentration for assays was 0.1% DMSO. All assays were performed in duplicate.
(§2) Estimates of Ki, EC50, and Emax were determined using non-linear regression three-parameters (GraphPad, Prism, v. 9.0).

[2] = molecular target: T1, hCB2R; assay: HitHunter cAMP assay: inhibition of FSK-stimulated cAMP accumulation in CHO cells; type: cell-based
Experimental: For the cAMP inhibition assay, cells were treated with 10 μM FSK and synthetized compounds for 90 min to assess compound concentration-dependent activity.
as §1
The quantification of FSK-stimulated cAMP accumulation using the DiscoveRx HitHunter assay (DiscoveRx, Eurofins, Fremont, CA, USA) has been described in detail previously elsewhere. Briefly, 20,000 cells/well were plated in low-volume 96-well plates and incubated overnight in Opti-MEM with 1% FBS at 37 °C and 5% CO2. The next day, the media were replaced with cell assay buffer (DiscoveRx). Immediately after this, the cells were simultaneously treated with 10 µM FSK and ligands for 90 min. Subsequent additions of cAMP antibody solution and cAMP working detection solutions followed the manufacturer’s directions (DiscoveRx) and cells were stored for 60 min at room temperature. cAMP solution A (DiscoveRx) was added according to the manufacturer’s directions followed by another 60 min room temperature incubation prior to chemiluminescence being measured on a Cytation5 plate reader (top read, gain 200, integration time 10,000 ms).
as §2
(§3) Data are fitted to a non−linear regression (three parameter model, GraphPad v. 9.0). Data are mean ± S.E.M. of 6 independent experiments performed in triplicate.

[3] = molecular target: T1, hCB2R; assay: PathHunter β-arrestin2 recruitment assay in CHO cells; type: cell-based
Experimental: Compounds FG158a, FG160a, FG161a, and LV62 were also evaluated for their ability to recruit β-arrestin2, since G protein-coupled receptors also interact with β-arrestin, which facilitates receptor internalization, recycling, degradation, and signaling.
as §1
The quantification of β-arrestin2 recruitment using the DiscoveRx PathHunter assay has been described by our group previously and is summarized here.. Twenty thousand cells/well were grown overnight in Opti-MEM containing 1% FBS at 37 °C and 5% CO2 in low-volume 96 well plates. The next day, cells were treated with compounds for 90 min at 37 °C. Detection solution was added to cells according to the manufacturer’s directions (DiscoveRx) and cells were stored for 60 min at room temperature. After this incubation, chemiluminescence was quantified on a Cytation5 plate reader (top read, gain 200, integration time 10,000 ms).
as §2, §3

[4] = test system: ERK1/2; assay: ERK1/2 Western blot and densitometric analysis; type: cell-based, human; settings: SH-SY5Y cells
Excerpt: Among the CB2R agonists tested, we selected FG158a as it provides the best dose–response curve in SH-SY5Y cells (Figure 4B). The effect of CB2R agonists on the ERK pathway has been previously detected in other tumor models such as a breast cancer model. The dysregulation of the ERK/MAPK pathway is crucial in neuroblastoma. […] We addressed the effect of FG158a on MAPK kinase activation by the evaluation of its component ERK1/2 in the presence and in the absence of the antagonist SR144528 (Figure 6).
After the treatment with FG158a (20 μM) in the presence and absence of SR144528 (added 1 h before the CB2R agonist at the concentration of 1 µM), SHSY5Y cells were centrifuged and cell pellets were lysed in R.I.P.A. buffer (50 mM Tris-HCl, pH = 7.4; 150 mM NaCl; […], 1% NP-40; 0.5% sodium deoxycholate; 0.1% SDS; 1:100 phosphatase and protease inhibitors, both added before the lysis). Samples were centrifuged (17,900× g 20′ at 4 °C) and protein concentration was determined by Bio-Rad Protein Assay (Bio-Rad, Berkeley, CA, USA) as previously described. […]
Figure 6 FG158a inhibition of ERK1/2 is mediated by CB2R. […] The statistical analysis was performed by parametric two tailed t-test (* p < 0.05 FG158a calculated with respect to the CTR; ^& p < 0.01 FG158a+SR144528 calculated with respect to FG158a).

T1 sequence (P34972 whole entry): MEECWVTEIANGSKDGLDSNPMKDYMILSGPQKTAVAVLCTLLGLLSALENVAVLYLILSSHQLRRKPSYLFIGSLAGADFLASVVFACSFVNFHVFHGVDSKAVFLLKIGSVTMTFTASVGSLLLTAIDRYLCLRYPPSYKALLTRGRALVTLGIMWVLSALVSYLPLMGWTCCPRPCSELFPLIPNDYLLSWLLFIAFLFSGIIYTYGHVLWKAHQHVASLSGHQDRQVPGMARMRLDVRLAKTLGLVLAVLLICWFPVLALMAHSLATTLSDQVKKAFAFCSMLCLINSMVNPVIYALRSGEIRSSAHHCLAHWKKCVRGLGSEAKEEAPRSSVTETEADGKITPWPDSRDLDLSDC

With `CC1CCC(NC(=O)c2cc3cccnc3n(CCCCCBr)c2=O)CC1` (stereo not drawn) [FG158a, 1-(5-bromopentyl)-N-(4-methylcyclohexyl)-2-oxo-1,2-dihydro-1,8-naphthyridine-3-carboxamide] the Ki [1] was 0.021 µM, the “displacement of [3H]CP55,940 at hCB2R” value ([1]; CHO membranes, 0.1 nM-10 μM compounds) was “fully displaced [^3H]CP55,940” and the EC50 [2] was > 10 µM. For the same compound, the “modulation of cAMP response” value ([2]; CHO cells expressing hCB2R, 10 μM FSK, 90 min) was “not to affect this signaling pathway”, the EC50 [3] was > 10 µM and the “β-Arrestin2 Recruitment Emax (% CP55,940) ± S.E.M” value ([3]; CHO cells expressing human CB2R, 90 min) was 46 ± 1.8 % CP55,940. For the same compound, the “effect on ERK1/2 expression in presence of SR144528” value ([4]; 20 µM FG158a + SR144528 1 µM added 1 h before) was “reversed the inhibitory effect”, the “effect on ERK1/2 expression” value ([4]; 20 µM, vs untreated control cells) was “inhibited ERK1/2 expression” and the melting point was 121 to 123 °C.
